The values below are quoted from earlier work in patent US8445438B2, “Compositions comprising capture peptides for A β-amyloid peptide” (Recombinant Technologies LLC, priority 2008, dated 2013).

The data set has as its system Aβ. To be noted: peptide based on the GxFxGxF scaffold.

Chain of Aβ (P05067 672-711 limits assumed): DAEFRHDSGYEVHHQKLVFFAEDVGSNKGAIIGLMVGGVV

For the sequence RGTWEGKW (listed as Homo sapiens), the cellular toxicity result is listed as “reduce cellular toxicity”.
